This experiment deals with T1, human 5-HT4(a) (Homo sapiens, UniProt Q13639).
T1 construct: host or cells: GeneBIAzer HTR4-CRE-bla CHO-K1 cells
As to the kind of experiment: Evaluation of agonistic activity in CHO-K1 cells expressing human 5-HT4(a) (GeneBIAzer HTR4-CRE-bla CHO-K1 cells, beta-lactamase fluorescence ratio, EC50 from 8 concentrations). It counts as cell-based. The essentials: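 HTR4-CRE-bla CHO-K1 cells (10^4 per well, overnight in 1% FBS medium) exposed to compound for 5 h, then beta-lactamase substrate 2 h in the dark. Fluorescence ratio at 465/535 nm after 410 nm excitation; EC50 by non-linear regression over 8 concentrations.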

Counter-ions that a name gives are not always drawn.

T1 sequence (Q13639 1-387 isoform Q13639-2): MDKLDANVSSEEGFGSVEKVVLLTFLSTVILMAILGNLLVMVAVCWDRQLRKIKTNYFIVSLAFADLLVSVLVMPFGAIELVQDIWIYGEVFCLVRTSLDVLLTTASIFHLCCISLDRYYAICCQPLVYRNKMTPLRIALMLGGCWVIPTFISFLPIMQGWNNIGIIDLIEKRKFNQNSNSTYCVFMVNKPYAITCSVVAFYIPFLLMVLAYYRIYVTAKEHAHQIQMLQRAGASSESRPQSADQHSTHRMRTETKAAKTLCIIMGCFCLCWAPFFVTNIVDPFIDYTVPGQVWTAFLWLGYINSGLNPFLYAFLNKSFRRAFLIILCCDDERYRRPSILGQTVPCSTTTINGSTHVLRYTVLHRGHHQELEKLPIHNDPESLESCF

Turning to `CCCc1cc(N2CCC[C@@H](N)C2)nc(Nc2ccc(Cl)c(N)c2)n1` [Example 262, (R)—N^1-[4-(3-aminopiperidin-1-yl)-6-propylpyrimidin-2-yl]-4-chlorobenzene-1,3-diamine], the half-maximal effective concentration (EC50) is 0.021 nM.
As for `CCCc1cc(N2CCNC[C@H]2C)nc(Nc2cccc(C#N)c2)n1` [Example 82, (R)-3-[4-(2-methylpiperazin-1-yl)-6-propylpyrimidin-2-ylamino]benzonitrile dihydrochloride], the EC50 was 0.096 nM.
For `CCCc1cc(N2CCC[C@H](NCc3cccs3)C2)nc(Nc2ccc(C)c(C#N)c2)n1` [Example 160, (S)-2-methyl-5-(4-propyl-6-{3-[(thiophen-2-ylmethyl)amino]piperidin-1-yl}pyrimidin-2-ylamino)benzonitrile] the value was 0.125 nM; for `CCCCc1cc(N2CCC[C@@H](NC)C2)nc(Nc2cc(N)cc(C#N)c2)n1` [Example 315, (R)-3-amino-5-({4-butyl-6-[3-(methylamino)piperidin-1-yl]pyrimidin-2-yl}amino)benzonitrile], 0.0012 nM.
For `CCCCc1cc(N2CCC[C@@H](NC(C)=O)C2)nc(Nc2ccc(C)c([N+](=O)[O-])c2)n1` [Example 233, (R)—N-{1-[6-butyl-2-(4-methyl-3-nitrophenylamino)pyrimidin-4-yl]piperidin-3-yl}acetamide] the value was 0.009 nM; for `CCCc1cc(N2CCC[C@@H](NC(C)=O)C2)nc(Nc2ccc(N)c(C(F)(F)F)c2)n1` [Example 279, (R)—N-(1-{2-[4-amino-3-(trifluoromethyl)phenylamino]-6-propylpyrimidin-4-yl}piperidin-3-yl)acetamide], 0.014 nM.
For the compound `CCCc1cc(N2CCCCC2CC)nc(Nc2cc(OC)ccc2C)n1` (stereo not shown) [Example 112, 4-(2-ethylpiperidin-1-yl)-N-(5-methoxy-2-methylphenyl)-6-propylpyrimidin-2-amine], the 50% effective concentration (EC50) was determined as 0.37 nM.
Take `CCCc1cc(N2CCCCC2CC)nc(Nc2ccc(F)c([N+](=O)[O-])c2)n1` (stereo not shown) [Example 100, 4-(2-ethylpiperidin-1-yl)-N-(4-fluoro-3-nitrophenyl)-6-propylpyrimidin-2-amine]: the EC50 came to 0.2 nM.
Next, `CCCc1cc(N2CCC[C@@H](NCC3CC3)C2)nc(Nc2ccc(N)c(C(F)(F)F)c2)n1` [Example 230, (R)—N^1-{4-[3-(cyclopropylmethylamino)piperidin-1-yl]-6-propylpyrimidin-2-yl}-3-(trifluoromethyl)benzene-1,4-diamine]: 0.0046 nM.
For `CCCc1cc(N2CCC[C@@H](NCC)C2)nc(Nc2ccc(N)c(C(F)(F)F)c2)n1` [Example 291, (R)—N^1-[4-(3-ethylaminopiperidin-1-yl)-6-propylpyrimidin-2-yl]-3-(trifluoromethyl)benzene-1,4-diamine] the value was 0.0028 nM.
Next, `CCCc1cc(N2CCCCC2CCO)nc(Nc2cccc(C(F)(F)F)c2)n1` (stereo not shown) [Example 147, 2-{1-[6-propyl-2-(3-trifluoromethylphenylamino)pyrimidin-4-yl]piperidin-2-yl}ethanol]: 0.31 nM; `CCCc1cc(N2CCCCC2)nc(Nc2ccc(C)c([N+](=O)[O-])c2)n1` [Example 47, N-(4-methyl-3-nitrophenyl)-4-(piperidin-1-yl)-6-propylpyrimidin-2-amine]: 0.15 nM; `CCCc1cc(N2CCC[C@@H](NC(C)=O)C2)nc(Nc2cccc(C#N)c2)n1` [Example 273, (R)—N-{1-[2-(3-cyanophenylamino)-6-propylpyrimidin-4-yl]piperidin-3-yl}acetamide]: 0.046 nM.
On to `CCCc1cc(N2CCC[C@@H](NC(C)=O)C2)nc(Nc2ccc(F)c(C#N)c2)n1` [Example 268, (R)—N-{1-[2-(3-cyano-4-fluorophenylamino)-6-propylpyrimidin-4-yl]piperidin-3-yl}acetamide], for which the EC50 was 0.025 nM.
For `CCCc1cc(N2CCCCC2CCO)nc(Nc2cccc(SC)c2)n1` (stereo not shown) [Example 25, 2-(1-{2-[3-(methylthio)phenylamino]-6-propylpyrimidin-4-yl}piperidin-2-yl)ethanol] the value was 0.073 nM.
For `CCCc1cc(N2CCC[C@@H](NCC)C2)nc(Nc2ccc(C)c(C#N)c2)n1` [Example 205, (R)-5-{4-[3-(ethylamino)piperidin-1-yl]-6-propylpyrimidin-2-ylamino}-2-methylbenzonitrile] the value was 0.008 nM; for `CCCCc1cc(N2CCC[C@@H](NC)C2)nc(Nc2cccc(C#N)c2)n1` [Example 329, (R)-3-({4-butyl-6-[3-(methylamino)piperidin-1-yl]pyrimidin-2-yl}amino)benzonitrile], 0.054 nM.
For `CCCc1cc(N2CCC[C@@H](NCC3CC3)C2)nc(Nc2ccc(N)c([N+](=O)[O-])c2)n1` [Example 228, (R)—N^1-{4-[3-(cyclopropylmethylamino)piperidin-1-yl]-6-propylpyrimidin-2-yl}-3-nitrobenzene-1,4-diamine], the EC50 was 0.0035 nM.
For `CCCc1cc(N2CCNC[C@H]2C)nc(Nc2ccc3cc[nH]c3c2)n1` [Example 118, (R)-N-[4-(2-methylpiperazin-1-yl)-6-propylpyrimidin-2-yl]-1H-indol-6-amine] the value was 0.024 nM.
On to `CCCCc1cc(N2CCC[C@@H](NC)C2)nc(Nc2ccc(OC)c(N)c2)n1` [Example 333, (R)—N^1-{4-butyl-6-[3-(methylamino)piperidin-1-yl]pyrimidin-2-yl}-4-methoxybenzene-1,3-diamine], for which the EC50 stood at 0.132 nM.
`CCCc1cc(N2CCCCC2CC)nc(Nc2cccc(SC)c2)n1` (stereo not shown) [Example 104, 4-(2-ethylpiperidin-1-yl)-N-[3-(methylthio)phenyl]-6-propylpyrimidin-2-amine]: the EC50 turned out to be 0.36 nM.
Next, `CCCc1cc(N2CCC[C@@H](N)C2)nc(Nc2ccc(F)c(C#N)c2)n1` [Example 222, (R)-5-[4-(3-aminopiperidin-1-yl)-6-propylpyrimidin-2-ylamino]-2-fluorobenzonitrile dihydrochloride]: 0.056 nM; `CCCc1cc(N2CCC[C@H](NCC3CC3)C2)nc(Nc2ccc(C)c(C#N)c2)n1` [Example 163, (S)-5-{4-[3-(cyclopropylmethylamino)piperidin-1-yl]-6-propylpyrimidin-2-ylamino}-2-methylbenzonitrile]: 0.088 nM.
Next, `CCCc1cc(N2CCCCC2CCO)nc(Nc2ccc(N)c(C(F)(F)F)c2)n1` (stereo not shown) [Example 175, 2-{1-[2-(4-amino-3-trifluoromethylphenylamino)-6-propylpyrimidin-4-yl]piperidin-2-yl}ethanol]: 0.035 nM; `CCCCc1cc(N2CCC[C@@H](NC(C)=O)C2)nc(Nc2ccc(F)c(N)c2)n1` [Example 241, (R)—N-{1-[2-(3-amino-4-fluorophenylamino)-6-butylpyrimidin-4-yl]piperidin-3-yl}acetamide]: 0.014 nM; `CCCc1cc(N2CCCCC2CC)nc(Nc2cccc(OC)c2)n1` (stereo not shown) [Example 102, 4-(2-ethylpiperidin-1-yl)-N-(3-methoxyphenyl)-6-propylpyrimidin-2-amine]: 0.47 nM.
In the case of `CCCc1cc(N2CCC[C@@H](NC)C2)nc(Nc2ccc(C)c(C(F)(F)F)c2)n1` [Example 324, (R)—N-[4-methyl-3-(trifluoromethyl)phenyl]-4-[3-(methylamino)piperidin-1-yl]-6-propylpyrimidin-2-amine], the EC50 came to 0.0087 nM.
With `CCCc1cc(N2CCCC3CCCCC32)nc(Nc2cnc3ccccc3c2)n1` (stereo not shown) [Example 203, N-[4-(octahydroquinolin-1(2H)-yl)-6-propylpyrimidin-2-yl]quinolin-3-amine], the EC50 is 0.14 nM.
For `CCCc1cc(N2CCC[C@@H](NCC)C2)nc(Nc2ccc(N)c([N+](=O)[O-])c2)n1` [Example 288, (R)—N^1-[4-(3-ethylaminopiperidin-1-yl)-6-propylpyrimidin-2-yl]-3-nitrobenzene-1,4-diamine] the value was 0.0046 nM; for `CCCCc1cc(N2CCC[C@@H](NC)C2)nc(Nc2ccc(F)c(C(F)(F)F)c2)n1` [Example 320, (R)-4-butyl-N-[4-fluoro-3-(trifluoromethyl)phenyl]-6-[3-(methylamino)piperidin-1-yl]pyrimidin-2-amine], 0.018 nM.
For `CCCCc1cc(N2CCC[C@@H](N)C2)nc(Nc2ccc(F)c(N)c2)n1` [Example 349, (R)—N^1-[4-(3-aminopiperidin-1-yl)-6-butylpyrimidin-2-yl]-4-fluorobenzene-1,3-diamine] the value was 0.014 nM; for `CCCc1cc(N2CCNC[C@H]2C)nc(Nc2ccc(Cl)c([N+](=O)[O-])c2)n1` [Example 117, (R)-N-(4-chloro-3-nitrophenyl)-4-(2-methylpiperazin-1-yl)-6-propylpyrimidin-2-amine], 0.077 nM; for `CCCc1cc(N2CCCCC2CCO)nc(Nc2ccc(Cl)c(N)c2)n1` (stereo not shown) [Example 182, 2-{1-[2-(3-amino-4-chlorophenylamino)-6-propylpyrimidin-4-yl]piperidin-2-yl}ethanol], 0.022 nM.
For `CCCc1cc(N2CCCCC2CCO)nc(Nc2ccc(C)c([N+](=O)[O-])c2)n1` (stereo not shown) [Example 174, 2-{1-[2-(4-methyl-3-nitrophenylamino)-6-propylpyrimidin-4-yl]piperidin-2-yl}ethanol] the value was 0.039 nM; for `CCCCN[C@@H]1CCCN(c2cc(CCC)nc(Nc3ccc(C)c(C#N)c3)n2)C1` [Example 207, (R)-5-{4-[3-(butylamino)piperidin-1-yl]-6-propylpyrimidin-2-ylamino}-2-methylbenzonitrile], 0.013 nM; for `CCCCc1cc(N2CCC[C@@H](NCCC(C)C)C2)nc(Nc2ccc(C)c(C#N)c2)n1` [Example 303, (R)-5-({4-butyl-6-[3-(isopentylamino)piperidin-1-yl]pyrimidin-2-yl}amino)-2-methylbenzonitrile], 0.025 nM.
As for `CCCCCN[C@H]1CCCN(c2cc(CCC)nc(Nc3ccc(C)c(C#N)c3)n2)C1` [Example 155, (S)-5-{4-[3-(pentylamino)piperidin-1-yl]-6-propylpyrimidin-2-ylamino}-2-methylbenzonitrile], the EC50 is 0.093 nM.

Values taken from patent publication US9850227B2 (YUHAN CORPORATION, priority 2011, dated 2017).
